Data as given in patent EP2241312A1, “Use of compositions comprising urea for treating microbial infections” (ISDIN S.A., priority 2009, dated 2010).
Where two headings read alike, the source gives them in different places.

Tested on: HBD-2
Assay: cells
Type: cell-based, human
Settings: for fold induction at 1000 µM / fold induction at 10000 µM / fold induction at 20000 µM / fold induction at 50000 µM / fold induction at 100000 µM / fold induction at 5000 µM: Homo sapiens, Keratinocyte; for Expression of HBD-2: keratinocytes
Protocol: Primary human epidermal keratinocytes were prepared from neonatal foreskin as described previously (Grether-Beck et al, 1996, 2000, 2003, 2005, 2008) and maintained in culture under serum free conditions using a defined keratinocyte growth medium Keratinocyte SFM (Invitrogen, Heidelberg, Germany) supplemented with bovine pituitary extract (Invitrogen, Heidelberg, Germany) and recombinant epidermal growth factor (Invitrogen, Heidelberg, Germany). Cells were propagated up to passage 2 or 3 at 37°C and 5 % CO2 (Grether-Beck et al, 1996, 2000, 2003, 2005, 2008). For induction of differentiation NHEKs were seeded in 6well plates and grown up to confluence.
For assessment of gene expression total RNA was extracted from frozen biopsies (Ø 4 mm) and gene expression measured by semiquantitative RT-PCR. For isolation of RNA from frozen skin biopsies, 600 µl lysis buffer from PeqGold Total RNA Kit (PeqLab, Erlangen, Germany) were added and the samples were disrupted in a MixerMill MM300 (Retsch, Haan, Germany) three times for 3 min with 30 Hz. 50 ng total RNA were used for cDNA synthesis. PCR reactions were performed in an Opticon 1 (MJ Research, Waltham, MA, USA) using Sybr QPCR Supermix w. Rox (Invitrogen, Karlsruhe, Germany). PCR conditions were as follows: activation of hot start taq polymerase 94° C 15 minutes; denaturation 95° C, 20 seconds; annealing, 55° C, 20 seconds; extension, 72° C 30 seconds. Each sample was subjected to PCR in double using the appropriate primer pairs for 45-50 cycles. For comparison of relative expression in real time PCR control cells and treated cells the 2 (-della delta C(T)) method was used (Livak KJ, and Schmittgen TD. Analysis of relative gene expression data using real time quantitative PCR and the 2 (-delta delta C(T)) method. Methods 2001: 25: 402 - 408). mRNA expression of the genes of interest was shown as fold induction as compared to untreated skin samples of the same volunteer. Table 1: Primer pairs for real time PCR
For determination of relative gene expression in real time PCT the 2(-delta delta C(T))-method was used as described in Livak and Schmittgen (2001) "Analysis of relative gene expression data using real time quantitative PCR and the 2 (-delta delta C(T))-method" Methods 25: 401-408. For statistical analysis, the experimental data were analyzed using the Wilcoxon signed-rank test.
Data are the result of a set of three samples for the control and two samples in parallel for the urea stimulated ones. Table 2 indicates the relative gene expression levels after stimulation with urea as compared to untreated contol cells. […] Table 3 indicates the data depicted in Figure 2. [formula] Table 2: Expression of antimicrobial peptides in human keratinocytes after stimulation with urea at different time points after induction.

Q: How did the fold induction at 1000 µM (24 h, read-out: Expression of HBD-2, 24h, 1mM urea) turn out when `NC(N)=O` [urea] was run?
A: 1.2

Q: And the fold induction at 10000 µM (24 h, read-out: Expression of HBD-2, 24h, 10mM urea)?
A: 1.5

Q: And the fold induction at 20000 µM (24 h, read-out: Expression of HBD-2, 24h, 20mM urea)?
A: 3.9

Q: And the fold induction at 50000 µM (24 h, read-out: Expression of HBD-2, 24h, 50mM urea)?
A: 2.3

Q: What about the fold induction at 100000 µM (24 h, read-out: Expression of HBD-2, 24h, 100mM urea) of the same compound?
A: 1.3

Q: What about the fold induction at 1000 µM (48 h, read-out: Expression of HBD-2, 48h, 1mM urea) of the same compound?
A: 0.9

Q: And the fold induction at 5000 µM (48 h, read-out: Expression of HBD-2, 48h, 5mM urea)?
A: 1.7

Q: What about the fold induction at 10000 µM (48 h, read-out: Expression of HBD-2, 48h, 10mM urea) of the same compound?
A: 3.3

Q: What about the fold induction at 20000 µM (48 h, read-out: Expression of HBD-2, 48h, 20mM urea) of the same compound?
A: 19.1

Q: And the fold induction at 50000 µM (48 h, read-out: Expression of HBD-2, 48h, 50mM urea)?
A: 6.3

Q: What about the fold induction at 100000 µM (48 h, read-out: Expression of HBD-2, 48h, 100mM urea) of the same compound?
A: 2.3

Q: What about the fold induction at 1000 µM (72 h, read-out: Expression of HBD-2, 72h, 1mM urea) of the same compound?
A: 2.2

Q: And the fold induction at 5000 µM (72 h, read-out: Expression of HBD-2, 72h, 5mM urea)?
A: 5.4

Q: What about the fold induction at 10000 µM (72 h, read-out: Expression of HBD-2, 72h, 10mM urea) of the same compound?
A: 6.5

Q: What about the fold induction at 20000 µM (72 h, read-out: Expression of HBD-2, 72h, 20mM urea) of the same compound?
A: 13.3

Q: What about the fold induction at 50000 µM (72 h, read-out: Expression of HBD-2, 72h, 50mM urea) of the same compound?
A: 10.1

Q: What about the fold induction at 100000 µM (72 h, read-out: Expression of HBD-2, 72h, 100mM urea) of the same compound?
A: 2.9

Q: What about the fold induction at 1000 µM (96 h, read-out: Expression of HBD-2, 96h, 1mM urea) of the same compound?
A: 1.9

Q: What about the fold induction at 5000 µM (96 h, read-out: Expression of HBD-2, 96h, 5mM urea) of the same compound?
A: 4.1

Q: What about the fold induction at 10000 µM (96 h, read-out: Expression of HBD-2, 96h, 10mM urea) of the same compound?
A: 6.1

Q: What about the fold induction at 20000 µM (96 h, read-out: Expression of HBD-2, 96h, 20mM urea) of the same compound?
A: 15

Q: What about the fold induction at 50000 µM (96 h, read-out: Expression of HBD-2, 96h, 50mM urea) of the same compound?
A: 12.6

Q: And the fold induction at 100000 µM (96 h, read-out: Expression of HBD-2, 96h, 100mM urea)?
A: 10.2

Q: And the “Expression of HBD-2” value (24 h, 1000 µM)?
A: 1.1000

Q: What about the “Expression of HBD-2” value (24 h, 10000 µM) of the same compound?
A: 1.6000

Q: What about the “Expression of HBD-2” value (48 h, 1000 µM) of the same compound?
A: 0.7000

Q: What about the “Expression of HBD-2” value (48 h, 5000 µM) of the same compound?
A: 1.6000

Q: What about the “Expression of HBD-2” value (48 h, 50000 µM) of the same compound?
A: 6.2000

Q: What about the “Expression of HBD-2” value (48 h, 100000 µM) of the same compound?
A: 2.6000

Q: And the “Expression of HBD-2” value (72 h, 1000 µM)?
A: 2.6000

Q: And the “Expression of HBD-2” value (72 h, 10000 µM)?
A: 7.0000

Q: What about the “Expression of HBD-2” value (72 h, 20000 µM) of the same compound?
A: 13.2000

Q: And the “Expression of HBD-2” value (96 h, 1000 µM)?
A: 1.8000

Q: And the “Expression of HBD-2” value (96 h, 5000 µM)?
A: 4.2000

Q: And the “Expression of HBD-2” value (96 h, 100000 µM)?
A: 10.9000
